Results on three compounds are retold here after patent US12370197B2, “Combination product of a Bcl-2/Bcl-xL inhibitor and a chemotherapeutic agent and use thereof in the prevention and/or treatment of diseases” (ASCENTAGE PHARMA (SUZHOU) CO., LTD., priority 2019, dated 2025).

Structures are written as SMILES. “And” between values parts separate entries of the source, which are not always exact repeats. Equal values may be shown once. “Also recorded” adds a separate entry of the source.

Assay [1] has as its system MV-4-11 AML xenograft. In words: human MV-4-11 AML xenograft model in mice. In kind it is in vivo, mouse. The note with it: for mRECIST: MV-4-11 xenograft, animals with response / animals in group; for RTV (D22) (Mean ± SEM) / T/C (%) (D22): female BALB/c Nude mice, s.c. MV-4-11, Compound 6 or ABT-199 50 mg/kg oral once daily 21 days, HHT 1 mg/kg i.p. once daily 14 days, day 22. As for the experimental part: Treatment was initiated on the day of grouping (Day 1). […] HHT was intraperitoneally administered once daily for consecutive 14 days. The tumor sizes (caliper) and animal body weights were measured twice a week.

The test system of assay [2] is OCI-AML-3 cells. The assay can be described thus: CellTiter-Glo luminometric cell viability assay (CTG), OCI-AML-3. In kind it is cell-based, human. As for the experimental part:
(§1) In the antiproliferative tests, cells were plated in 96-well plates (Corning, Cat. 3903) at 10000 cells/well/cell line. In the apoptosis assay, cells were plated in 24-well plates (Corning, Cat. 3524) at 200000 cells/well/cell line.
(§2) For combination tests, the results were further analyzed using the CalcuSyn program to calculate a Combination Index (CI) (Chou, T. C. (2010) “Drug combination studies and their synergy quantification using the Chou-Talalay method.”, Cancer Res 70(2): 440-446). […]
(§3) The anti-proliferation effects of the test sample in three AML/MDS cell lines, namely MV-4-11 (Compound 6 sensitive cell line), OCI-AML-3 (Compound 6 non-sensitive cell line) and SKM-1 (Compound 6 non-sensitive cell line), were determined by quantifying ATP using CellTiter-Glo luminescence cell viability detection kits, according to the manufacturer's instructions.
(§4) First, cells in the logarithmic growth phase were collected, centrifuged, and the cell suspension was counted and diluted/adjusted to the desired concentration. […] More than 3 blank control wells containing only medium (100 μL/well) without cells were set on the same plate to obtain background luminescence, and cell control wells, i.e., wells containing cells but treated with vehicle control, were set. […]
(§5) Luminescence signals were detected using a Biotek synergy H1 microplate reader. […]
For orientation: ATP-based viability assays read luminescence as a measure of living cells.

Assay [3] concerns SKM-1 cells. The assay can be described thus: CellTiter-Glo luminometric cell viability assay (CTG), SKM-1. In kind it is cell-based. The procedure: as §1, §2, §3, §4, §5
Assay [4] deals with MV-4-11 cells. The assay can be described thus: CellTiter-Glo luminometric cell viability assay (CTG), MV-4-11. In kind it is cell-based, human. The procedure:
as §1, §2, §3, §4, §5

The test system of assay [5] is OCI-AML-3 cells. The assay can be described thus: Annexin V-PI apoptosis flow cytometry, OCI-AML-3. The assay is classed as cell-based, human. The note with it: 24 h, Compound 6 10 nM, HHT 30 nM, alone or combined. As for the experimental part: as §1
[Experimental Methods]: Flow Cytometer Analysis
Cells were harvested after 24 hours of treatment with Compound 6 alone, HHT alone, or the combination of both, and washed once with phosphate buffered saline (PBS). Cells were stained with Annexin-V and PI and analyzed using an Attune NxT flow cytometer. Apoptosis profiles were obtained by analyzing 20000 cells per experimental condition.
Apoptosis was detected using Annexin V-PI (propidium iodide) staining kit according to the manufacturer's instructions. After treating the cells MV-4-11, OCI-AML-3 and SKM-1 with 10 nM Compound 6 alone, 10 nM or 30 nM HHT alone or the combination of both for 24 hours, the cells were harvested and washed once with PBS. Cells were bi-color stained with Annenix V-FITC and PI. After staining was complete, analysis was performed using an Attune NxT flow cytometer. Apoptosis profiles were obtained by analyzing 20000 cells per experimental condition.
On the technique in general: Flow cytometry measures light scatter and fluorescence of single cells or particles in a stream.

In assay [6] the test system is OCI-AML-3 AML xenograft. The assay can be described thus: human OCI-AML-3 AML xenograft model in mice. The assay is classed as in vivo, mouse. The conditions noted are these: female NOD SCID mice, s.c. OCI-AML-3; Compound 6 50 mg/kg oral once daily 14 days; HHT 0.75 mg/kg i.p. once daily 7 days from D2; day 15. As for the experimental part:
Treatment was initiated on the grouping day (D1). […] HHT was intraperitoneally injected once daily from D2 and continued for consecutive 7 days. The tumor sizes (caliper) and animal body weights were measured twice a week.
A general note: In xenograft studies the graft and the host belong to different species.

Assay [7] deals with MCL-1. The assay can be described thus: Western Blot assay, MCL-1. In kind it is cell-based, human. The conditions noted are these: MV-4-11, OCI-AML-3 and SKM-1 cells, 4 h; 10 nM Compound 6, 10 nM or 30 nM HHT. The procedure:
[Experimental Methods]: Western Blot Assay
Western Blot assay was performed after 4 hours treatment of cells in logarithmic growth phase with Compound 6, HHT, either alone or in combination.
After 4 hours of interaction with 10 nM Compound 6 in combination with 10 nM or 30 nM HHT, cells were harvested and washed once with pre-cooled PBS. The cell pellets were lysed using RIPA lysate containing 1% PMSF and 1% protease inhibitor. The protein concentration was detected by using a BCA protein concentration detection kit. Cell lysates (20-50 μg) were separated by 4-20% SDS-PAGE. The separated proteins were transferred to PVDF membranes which were blocked using 1% BSA (bovine serum albumin) buffer at room temperature for 1 hours before incubated in a shaker at 4° C. overnight with primary antibody diluted in 1×TBST (Tris-Buffered Saline Tween-20) containing 1% BSA. The membranes were washed 3 times with 1×TBST each for 10 minutes, and then were incubated for 1 hour at room temperature using horseradish peroxidase (HRP)-tagged secondary antibodies (goat anti-rabbit-HRP (Yeasen, Cat. #33101ES60) and goat anti-mouse-HRP (Yeasen, Cat. #33201ES60), diluted according to the manufacturer's instructions). The membranes were washed 3 times with 1×TBST each for 10 minutes. HRP substrate was added onto the PVDF membrane. […]

For the compound `CC1(C)CCC(CN2CCN(c3ccc(C(=O)NS(=O)(=O)c4ccc(NCC5CCOCC5)c([N+](=O)[O-])c4)c(Oc4cnc5[nH]ccc5c4)c3)CC2)=C(c2ccc(Cl)cc2)C1` [ABT-199], in assay [1], the mRECIST entry was “no CR or PR and 6/6 PD”; the “RTV (D22) (Mean ± SEM)” value is reported as 11.77 ± 1.94; the “T/C (%) (D22)” value was 88.27%.

For the compound `O=C(NS(=O)(=O)c1ccc(NC[C@H]2COCCO2)c([N+](=O)[O-])c1)c1ccc(N2CCN(CC3=C(c4ccc(Cl)cc4)CC4(CCC4)CC3)CC2)cc1Oc1cnc2[nH]ccc2c1` [Compound 6, (S)-N-((4-(((1,4-dioxan-2-yl)methyl)amino)-3-nitrophenyl)sulfonyl)-2-((1H-pyrrolo[2,3-b]pyridin-5-yl)oxy)-4-(4-((6-(4-chlorophenyl)spiro[3.5]non-6-en-7-yl)methyl)piperazin-1-yl)benzamide], the “sensitivity of the cell line to Compound 6” value (from here on “sensitivity of the cell line”) in assay [2] is given as “non-sensitive”. In assay [3], the “sensitivity of the cell line” value was “non-sensitive”. The “sensitivity of the cell line” value in assay [4] is “sensitive; also recorded: moderate sensitivity”. For the same compound, the “apoptosis (Annexin V+ cells)” value in assay [5] was found to be 12.1%. In addition, in assay [6], the “RTV(D15) (Mean ± SEM)” value worked out at 12.77 ± 1.51 and the “T/C (%) (D15)” value was determined as 61.36%. For the same compound, in assay [1], the mRECIST entry is “no CR or PR and 6/6 PD”; the “RTV (D22) (Mean ± SEM)” value came out at 8.36 ± 0.76; the “T/C (%) (D22)” value came out at 62.76%.

With `COC(=O)C[C@](O)(CCCC(C)(C)O)C(=O)O[C@@H]1C(OC)=C[C@]23CCCN2CCc2cc4c(cc2[C@H]13)OCO4` [HHT, homoharringtonine], the “expression level of anti-apoptosis protein MCL-1” value in assay [7] is reported as “reduce the expression level”. In addition, the “apoptosis (Annexin V+ cells)” value in assay [5] was 25.0%. Also, in assay [6], the “RTV(D15) (Mean ± SEM)” value is reported as 13.89 ± 0.82 and the “T/C (%) (D15)” value was determined as 66.77%. In assay [1], the mRECIST was 3/5 SD and 3/5 SD, 2/5 PD; the “RTV (D22) (Mean ± SEM)” value is on record as 4.32 ± 1.42; the “T/C (%) (D22)” value stood at 32.43%.
